Measurements from patent US11980633B2, “Method for treating cancer using a combination of DNA-damaging agents and DNA-PK inhibitors” (Vertex Pharmaceuticals Incorporated, priority 2016, dated 2024).

Tests used:
Assay type in all cases: cell-based
[1] = system: primary human pancreatic tumors; assay: TCA: Compound B-1 with gemcitabine, primary pancreatic tumors
Protocol: (§1) In both studies, cell viability was assessed after 6 days in culture. Statistical analysis of the combination matrix was performed to assess whether synergy, additivity, or antagonism of the combination treatments were observed.
(§2) Materials: Primary patient samples (See Tables 16 and 17, below) were excised from mice when they reached 500 mg to 1000 mg in size and processed immediately, or after overnight shipment. Tumors were serially passaged by subcutaneous implantation of 50 mg to 150 mg fragments into the flanks of immunocompromised (nude) mice. Tumors were used within the first 5 or 7 passages.
(§3) Tumor Chemosensitivity Assay (TCA): Primary tumor samples were grown and serially passaged in immunocompromised mice. Tumors were mechanically dissociated into small fragments (1 mm to 2 mm) with scalpels in phosphate buffered saline (PBS or RPMI) and centrifuged at 200×g for 5 minutes at room temperature in 50 mL centrifuge tubes. Samples were resuspended in 10 mL of cell dissociation reagent and enzymatically digested with mechanical agitation for 1 to 3 hours at 37° C., 5% CO2 to a single cell suspension. Ten mL of complete RPMI-1640 media was added to the cell mixture and pipetted up and down 4 to 5 times. The mixture was then passed through a 70 μm or 100 μm mesh strainer to remove undigested tumor. The filtrate was then centrifuged 200×g for 5 minutes at room temperature and resuspended in 20 mL complete RPMI-1640. This cell suspension was slowly layered onto 20 mL of room temperature Histopaque and centrifuged at 400×g for 15 minutes at room temperature without a brake. The interface was transferred to a new 50 mL centrifuge tube and 15 mL of complete RPMI-1640 was added. This suspension was centrifuged at 200×g at room temperature, and the resulting pellet was resuspended in 10 mL of complete PC-1 media, except for pancreatic tumors in which case Pancreatic Medium was used. Cells were diluted in Trypan blue, and viable cells that excluded the dye were counted. Only the larger, tumor cells were included in the cell count. Cells were diluted in complete PC-1 or Pancreatic media, as appropriate for the cells, and were plated at 15,000 to 20,000 cells per well in 100-135 μL in ultra-low attachment U-bottom plates.
(§4) Compound Addition: For these studies, a 10 mM stock of the DNA-PK inhibitor (Compound B-1 or Compound B-2) was made in DMSO and used to add to cells from most tumors with HP D300 Digital Dispenser (Tecan US, Morrisville, NC, USA), or diluted into the appropriate media (PC-1 or pancreatic media) as a 5-10× stock and added to cells (OVX001 and ENX001, 005). PC-1, pancreatic media, and chemotherapeutics were also added so that final well volume was 150 μL. Doxorubicin was made as DMSO stock of 1 or 10 mM and added to cells for most tumors with HP D300 Digital Dispenser, or diluted into PC-1 as 5-10× stock and added to cells (OVX001 and ENX001, 005). Cisplatin (cis-diammine platinum(II), dichloride) was prepared fresh to 10 mM in warm (60° C.) distilled water and diluted in PC-1 as a 5-10× stock. […] Different starting concentrations, dose ranges, and number of doses were used for each experiment based on the response data available at the time.
(§5) For bleomycin experiments, combinations with Compound B-1 at all concentrations were run in triplicate. A 6×3 matrix was designed on one plate, consisting of a 2-point concentration range of 0.73 μM and 2.2 μM Compound B-1 plus no treatment control, in 3 columns each of 6 wells. Bleomycin (plus ‘no treatment’ control) was added to 9 wells in rows of this plate. Similar 6×3 matrices were set up for additional agents with different starting concentrations for compound dilutions. For cisplatin experiments the starting concentration was 30 μM which was diluted 1:3. […] For doxorubicin hydrochloride experiments the starting concentration was 5 μM doxorubicin which was diluted 1:3. For gemcitabine experiments the starting concentration was 5 μM gemcitabine which was diluted 1:3. […]

[2] = system: primary human tumors (esophageal, gastric); assay: TCA: Compound B-1 with carboplatin, primary tumors
Protocol: as §1, §2, §3, §4, §5

[3] = system: primary human tumors (NSCLC, SCLC); assay: TCA: Compound B-1 with etoposide, primary lung tumors
Protocol: as §1, §2, §3, §4, §5

[4] = system: primary human tumors (NSCLC, SCLC, pancreatic, HCC, gastric, esophageal); assay: TCA assays overall: all combination treatments with Compound B-1
Protocol: as §1, §2
as §3, with “Cells were diluted in complete PC-1 or Pancreatic media, as appropriate for the cells, and were plated at 15,000 to 20,000 cells per well in 100-135 μL in ultra-low attachment U-bottom plates.” left out

CNC(=O)c1ccnc2c([C@H](C)CNc3cc(-c4cnc(C)nc4)ncn3)cccc12 [Compound B-1]
tumors that showed additivity ([1]; 2 of 4 pancreatic tumors): 50% | tumors that showed antagonism ([1]; 2 of 4 pancreatic tumors): 50% | Average Bliss score ([1]; tumor P110325, Pancreatic): −9 | Synergy/Additivity/Antagonism ([1]; tumor P110325, Pancreatic): Antagonistic (less than −5 are considered antagonistic) | Average Bliss score ([1]; tumor P110413, Pancreatic): −1 | Synergy/Additivity/Antagonism ([1]; tumor P110413, Pancreatic): Additive (Values between 5 and −5 are considered additive) | Average Bliss score ([1]; tumor P110504, Pancreatic): −6 | Synergy/Additivity/Antagonism ([1]; tumor P110504, Pancreatic): Antagonistic (less than −5 are considered antagonistic) | Average Bliss score ([1]; tumor P110603, Pancreatic): −2 | Synergy/Additivity/Antagonism ([1]; tumor P110603, Pancreatic): Additive (Values between 5 and −5 are considered additive) | tumors that showed synergy or additivity ([2]; 5 tumors): 100% | Average Bliss score ([2]; tumor ESX005, Esophageal): 3 | Synergy/Additivity/Antagonism ([2]; tumor ESX005, Esophageal): Additive (Values between 5 and −5 are considered additive) | Average Bliss score ([2]; tumor ESX008, Esophageal): 5 | Synergy/Additivity/Antagonism ([2]; tumor ESX008, Esophageal): Synergistic (greater than 5 are considered synergistic) | Average Bliss score ([2]; tumor GAX001, Gastric): 2 | Synergy/Additivity/Antagonism ([2]; tumor GAX001, Gastric): Additive (Values between 5 and −5 are considered additive) | Average Bliss score ([2]; tumor GAX007, Gastric): 4 | Synergy/Additivity/Antagonism ([2]; tumor GAX007, Gastric): Additive (Values between 5 and −5 are considered additive) | Average Bliss score ([2]; tumor GAX027, Gastric): 4 | Synergy/Additivity/Antagonism ([2]; tumor GAX027, Gastric): Additive (Values between 5 and −5 are considered additive) | tumors that showed strong synergy [3]: 100% | Average Bliss score ([3]; tumor LUX013, Lung (SCLC)): 15 | Synergy/Additivity/Antagonism ([3]; tumor LUX013, Lung (SCLC)): Strongly Synergistic (greater than 10 are considered strongly synergistic) | Average Bliss score ([3]; tumor LUX031, Lung (SCLC)): 16 | Synergy/Additivity/Antagonism ([3]; tumor LUX031, Lung (SCLC)): Strongly Synergistic (greater than 10 are considered strongly synergistic) | Average Bliss score ([3]; tumor OD26749, Lung (NSCLC)): 19 | Synergy/Additivity/Antagonism ([3]; tumor OD26749, Lung (NSCLC)): Strongly Synergistic (greater than 10 are considered strongly synergistic) | Average Bliss score ([3]; tumor OD29498, Lung (NSCLC)): 13 | Synergy/Additivity/Antagonism ([3]; tumor OD29498, Lung (NSCLC)): Strongly Synergistic (greater than 10 are considered strongly synergistic) | tumors that showed antagonism ([4]; all TCA combinations with Compound B-1 (4/63)): 6% | combination treatments that showed additive effects ([4]; all TCA combinations with Compound B-1 (29/63)): 46% | combination treatments that demonstrated synergy or strong synergy ([4]; all TCA combinations with Compound B-1 (29/68 as printed)): 46%
